We go through two molecules from US6780397B2, “Biomolecule conjugation strategy using novel water-soluble phosphine-based chelating agents” (Curators of the University of Missouri, priority 1998, dated 2004).

A short description of this data set: Stability of —PH2 compounds under storage and reaction conditions. In kind it is physicochemical. From the text: As a result of working with the Br(CH2)3 PH2 intermediate, it was recognized that the intermediate was unexpectedly stable under a variety of storage and reaction conditions.
Furthermore, the reactivity of the —PH2 groups in these compounds toward molecules containing a wide spectrum of functional groups (including carboxylic acids, amines, thiols, and proteins) was remarkably low or non-measurable.

Regarding `O=C(O)CCCCC(CCSCCCP)SCCCP` (stereo not shown) [(PH2)2S2—COOH, H2P(CH2)3SCH2CH2CH((CH2)4COOH)S(CH2)3PH2], under “HBTU, piperidine, solutions in DMF, trifluoroacetic acid wash”, the “stability to reaction conditions of solid phase peptide synthesis” value is listed as “stable”. Moreover, for the setting “during SPPS and analysis”, the “oxidation of —PH2 groups” value was “resistant to oxidation”. In addition, the stability profile result (wider range of chemical conditions than used with the Br(CH2)3PH2 intermediate) was “much improved stability profile”.

`PCCCBr.[HH]` [Br(CH2)3 PH2, 3-bromo-propyl phosphine hydride]: under “variety of solvents, wide pH range and temperature range”, the “stability under storage and reaction conditions” value was “reasonably stable”.
